Source: patent USRE39707E1, “Camptothecin derivatives” (Catholic Healthcare West, priority 2001, dated 2007)
Read-outs that look alike come from different tables or passages of the source. Marks after values point to notes of the source that are not given here.

Assays:
C3H/HeJ mice = system: C3H/HeJ mice
Procedure: This example provides directions for performing in vivo toxicity tests of the compounds of the invention on C3H/HeJ mice.
Acute toxicities of the compounds of this invention are evaluated on C3H/HeJ mice (body weight 18-22 g). The MTD40 (maximum tolerated dose at day 40) values were determined by the standard procedure described by Gad and Chengelis (see, for example, “Acute Toxicology Testing,” 2nd Ed., Shayne O. Gad and Christopher P. Chengelis, pp. 186-195 (Academic Press)). In the consecutive type studies, 2 mice were dosed at low and moderate doses of 40 and 100 mg/kg. If no severe and irreversible toxicity (euthanasia is required) occurs at these doses, a new pair of animals was initiated at 180 mg/kg, which is 1.8 times higher than 100 mg/kg. Sequential dosages (about 3 doses on 3 pairs of animals, i.e. 2 mice for each drug dose) were increased by a factor of 1.8 until severe and irreversible toxicity (euthanasia is required) occurred. Then another pair of animals was initiated at the highest nonlethal dosage, and successive dosages were increased by a factor of 1.15. The result of this exercise was two dosages, one apparently nonlethal and the other lethal if severe and irreversible toxicity occurs and euthanasia is required, separated by a factor of 1.15. Six mice were dosed at each dosage. If no severe and irreversible toxicity occurred at the lower dosage and at least one with severe and irreversible toxicity occurred at the higher dose, then the lower dose was considered to be the MTD. The compounds of this invention were administered to C3H/HeJ mice by intraperitoneal injection. Drug toxicity was evaluated on mice checked daily for 45 days.

VM46 = assay: Cell colony formation assay, VM46 cells; format: cell-based; settings: 72 hours drug exposure
Procedure: (§1) This example provides directions for growing cells and testing compounds of the invention for their effect on the growth of the cells. All cells were purchased from DCIDC Tumor Repository, NCI, NIH.
(§2) Four hundred cells (HCT 116, PC-3, NCI/ADR-RES: human breast cancer cells) or five hundred cells (VM46) were plated in 60 mm Petri dishes containing 2.7 ml of medium (modified McCoy's 5a medium) containing 10% fetal bovine serum and 100 units/ml penicillin and 100 mg/ml streptomycin. The cells were incubated in a CO2 incubator at 37° C. for 5 hours for attachment to the bottom of Petri dishes. Drugs were made fresh in medium at ten times the final concentration, and then 0.3 ml of this stock solution was added to the 2.7 ml of medium in the dish. The cells were then incubated with drugs for 72 hours at 37° C. At the end of the incubation the drug-containing media were decanted, the dishes were rinsed with 4 ml of Hank's Balance Salt Solution (HBSS), 5 ml of fresh medium was added, and the dishes were returned to the incubator for colony formation. The cell colonies were counted using colony counter after incubation for 7 days for HCT116 cells and PC-3 cells and 8 days for VM46 cells, respectively.
(§3) Values of ID50 (the drug concentration producing 50% inhibition of colony formation) may be determined for each tested compound. The directions described in this example may be used in other cells, such as DU-145.

HCT116 = assay: Cell colony formation assay, HCT116 cells; format: cell-based, human; settings: 72 hours drug exposure
Procedure: as §1
as §2, with “The” for “Four hundred cells (HCT 116, PC-3, NCI/ADR-RES: human breast cancer cells) or five hundred cells (VM46) were plated in 60 mm Petri dishes containing 2.7 ml of medium (modified McCoy's 5a medium) containing 10% fetal bovine serum and 100 units/ml penicillin and 100 mg/ml streptomycin. The”

PC-3 = assay: Cell colony formation assay, PC-3 cells; format: cell-based, human; settings: 72 hours drug exposure
Procedure: as §1, §2, §3

[1] = maximum tolerated dose at day 40, C3H/HeJ mice

Compound | In Vivo Toxicity MTD40 (ip, mg/kg) in C3H/Hej Mice (C3H/HeJ mice; [1]) | In vitro efficacy: Survival (%) of cells line VM46 (VM46; 1 nM) | In vitro efficacy: Survival (%) of cells line VM46 (VM46; 10 nM) | In Vitro Efficacy: Survival (%) of HCT116 (HCT116; 1 nM) | In Vitro Efficacy: Survival (%) of HCT116 (HCT116; 10 nM) | In Vitro Efficacy: Survival (%) of HCT116 (HCT116; 100 nM) | In vitro efficacy: Survival (%) of cells line PC-3 (PC-3; 1 nM) | In vitro efficacy: Survival (%) of cells line PC-3 (PC-3; 5 nM) | In Vivo Toxicity MTD40 (ip, mg/kg) in C3H/Hej Mice (C3H/HeJ mice; mouse, in vivo)
CCC1(OC(=O)COc2ccc(OCc3ccccc3)cc2)C(=O)OCc2c1cc1n(c2=O)Cc2cc3ccccc3nc2-1 (centres unmarked) [Example 000425, Camptothecin-20-O-ester of 4-benzyloxyphenoxyacetic acid] | <150 mg/kg | 80.46% | 0% | 100% | 0% | 0% | 99.28% | 71.61% | –
CCc1c2c(nc3ccc(OC(=O)N4CCC(N5CCCCC5)CC4)cc13)-c1cc3c(c(=O)n1C2)COC(=O)[C@]3(O)CC [CPT 11, 7-ethyl-10[4-(1-piperidino)-1-piperidino]carbonyloxy CPT, reference compound] | – | – | – | – | 100% | 90.52% | – | – | –
CC[C@@]1(O)C(=O)OCc2c1cc1n(c2=O)Cc2cc3ccccc3nc2-1 [CPT, (S)-4-ethyl-4-hydroxy-1H-pyrano-[3′,4′:6,7]indolizino[1,2-b]quinoline-3,14(4H,12H)-dione, reference compound] | <20** mg/kg | 77.64% | 0% | 100% | 73.72% | – | 93.85% | 33.09% | –
CCC1(OC(=O)COc2ccc(C)cc2)C(=O)OCc2c1cc1n(c2=O)Cc2cc3ccccc3nc2-1 (centres unmarked) [Example 000518, Camptothecin-20-O-ester of 4-methylphenoxyacetic acid] | <150 mg/kg | – | – | 97.31% | 0% | 0% | – | – | –
CCC1(OC(=O)COc2ccc(C(C)C)cc2)C(=O)OCc2c1cc1n(c2=O)Cc2cc3ccccc3nc2-1 (centres unmarked) [Example 000418, Camptothecin-20-O-ester of 4-isopropylphenoxyacetic acid] | >150 mg/kg | 79.17% | 0% | 97.56% | 0% | 0% | 100% | 78.12% | –
CCCCOCC(=O)OC1(CC)C(=O)OCc2c1cc1n(c2=O)Cc2cc3ccccc3nc2-1 (centres unmarked) [Example 000316, Camptothecin-20-O-ester of butyloxyacetic acid] | <150 mg/kg | 77.50% | 0% | 100% | 0% | 0% | 85.72% | 54.79% | –
CCC1(OC(=O)COc2ccc(Cl)cc2)C(=O)OCc2c1cc1n(c2=O)Cc2cc3ccccc3nc2-1 (centres unmarked) [Example 000517, Camptothecin-20-Oester of 4-chlorophenoxyacetic acid] | – | – | – | 100% | 0% | 0% | – | – | <150 mg/kg
Camptothecin-20-O-ester of ethylexyacetic acid [Example 000627] | <150 mg/kg | – | – | 70.44% | 0% | 0% | – | – | –
CCC1(OC(=O)COc2ccc(C(=O)O)cc2)C(=O)OCc2c1cc1n(c2=O)Cc2cc3ccccc3nc2-1 (centres unmarked) [Example 000725, Camptothecin-20-O-ester of 4-carboxyphenoxyacetic acid] | >150 mg/kg | – | – | 100% | 0% | 0% | – | – | –
CCC1(OC(=O)COc2c(Cl)cc(F)cc2Cl)C(=O)OCc2c1cc1n(c2=O)Cc2cc3ccccc3nc2-1 (centres unmarked) [Example 000602, Camptothecin-20-O-ester of 2,6-dichloro-4-fluorophenoxyacetic acid] | >150 mg/kg | – | – | 74.00% | 0% | 0% | – | – | –
CCC1(OC(=O)COc2ccc3c(c2)CC[C@@H]2[C@@H]3CC[C@]3(C)C(=O)CC[C@@H]23)C(=O)OCc2c1cc1n(c2=O)Cc2cc3ccccc3nc2-1 (some centres unmarked) [Example 000531, Camptothecin-20-O-ester of estra-1,3,5(10)-trien-17-one-3-oxyacetic acid] | – | – | – | 81.45% | 0% | 0% | – | – | >150 mg/kg
CCC1(OC(=O)COc2ccc(OC)cc2)C(=O)OCc2c1cc1n(c2=O)Cc2cc3ccccc3nc2-1 (centres unmarked) [Example 000314, Camptothecin-20-O-ester of 4-methoxyphenoxyacetic acid] | >150 mg/kg | – | – | – | – | 0% | – | – | –
CC[C@@]1(OC(=O)COc2ccc(C)nc2I)C(=O)OCc2c1cc1n(c2=O)Cc2cc3ccccc3nc2-1 [Example 000616, Camptotheci-20-O-ester of 6-iodo-2-methylpyridine-5-oxyacetic acid] | >150 mg/kg | – | – | 84.85% | 0% | 0% | – | – | –
CC[C@@]1(OC(=O)COc2nc3ccccc3s2)C(=O)OCc2c1cc1n(c2=O)Cc2cc3ccccc3nc2-1 [Example 000727, Camptothecin-20-O-ester of benzothiazole-2-oxyacetic acid] | – | – | – | 96.81% | 0% | 0% | – | – | –
CCC1(OC(=O)COc2ccc(C#N)c(F)c2)C(=O)OCc2c1cc1n(c2=O)Cc2cc3ccccc3nc2-1 (centres unmarked) [Example 001030, Camptothecin-20-O-ester of 4-cyano-3-fluorophenoxyacetic acid] | – | – | – | 86.90% | 0% | – | – | – | –
CCC1(OC(=O)COc2ccc([N+](=O)[O-])c(C(F)(F)F)c2)C(=O)OCc2c1cc1n(c2=O)Cc2cc3ccccc3nc2-1 (centres unmarked) [Example 000605, Camptothecin-20-O-ester of 4-nitro-3-trifuoromethylphenoxyacetic acid] | >150 mg/kg | – | – | 88.00% | 0% | 0% | – | – | –
CCC1(OC(=O)COc2cccc(CBr)c2)C(=O)OCc2c1cc1n(c2=O)Cc2cc3ccccc3nc2-1 (centres unmarked) [Example 000501, Camptothecin-20-O-ester of 3-bromomethylphenoxyacetic acid] | <150 mg/kg | 86.60% | 0% | 100% | 0% | 0% | 96.02% | 41.77% | –
